Earlier results on one compound are cited in patent US10941351B2, “Layer-separation method of spent caustic solution” (SK Innovation Co., Ltd., priority 2016, dated 2021).

For the data set the following is noted: at 25° C.

As for `CCCCCCCCO` [n-Octanol, n-octanol], the Water solubility is 460 µg/mL.
